Assays:
Format in all cases: biochemical
human Yes1 enzyme = molecular target: T1, human Yes1 enzyme (Homo sapiens, UniProt P07947); assay: Yes1 enzyme inhibitory activity (time-resolved fluorometry, biotinylated peptide phosphorylation); conditions: read-out: YES_IC50
T1 construct: made in house
How it was run: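 Inhibition was expressed against a compound-free control to give IC50, using TR-FRET read-out (Eu-cryptate anti-pTyr antibody, streptavidin-XL665).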

human Src enzyme = molecular target: T2, human Src enzyme (Homo sapiens, UniProt P12931); assay: Src enzyme inhibitory activity (time-resolved fluorometry, biotinylated peptide phosphorylation); conditions: read-out: SRC_IC50
T2 construct: purchased Carna Biosciences, Inc. 08-173
T2 sequence (P12931 whole entry): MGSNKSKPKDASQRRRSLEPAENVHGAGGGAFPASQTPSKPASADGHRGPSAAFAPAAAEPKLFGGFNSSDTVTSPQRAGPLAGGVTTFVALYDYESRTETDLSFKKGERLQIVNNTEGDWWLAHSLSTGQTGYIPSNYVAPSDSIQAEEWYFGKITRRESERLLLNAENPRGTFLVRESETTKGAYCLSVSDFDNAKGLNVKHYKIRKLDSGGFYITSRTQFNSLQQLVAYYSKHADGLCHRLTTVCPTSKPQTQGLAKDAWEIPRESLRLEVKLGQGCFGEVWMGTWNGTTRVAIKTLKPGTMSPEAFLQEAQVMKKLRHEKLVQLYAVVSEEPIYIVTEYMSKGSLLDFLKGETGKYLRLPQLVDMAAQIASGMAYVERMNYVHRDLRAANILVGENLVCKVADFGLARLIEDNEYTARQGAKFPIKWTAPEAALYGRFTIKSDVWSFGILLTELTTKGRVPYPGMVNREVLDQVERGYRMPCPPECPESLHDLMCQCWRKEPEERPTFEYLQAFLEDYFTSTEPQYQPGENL
How it was run: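 Compounds were tested for blocking tyrosine phosphorylation of a biotinylated peptide substrate by recombinant human Src. Phosphorylated product was quantified by time-resolved fluorometry using europium cryptate and XL665 conjugates, and IC50 was calculated against the compound-free control.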

human Lck enzyme = molecular target: T3, human Lck enzyme (Homo sapiens, UniProt P06239); assay: Lck enzyme inhibitory activity (time-resolved fluorometry, biotinylated peptide phosphorylation); conditions: read-out: LCK_IC50
T3 construct: purchased Carna Biosciences, Inc. 08-170
T3 sequence (P06239 whole entry): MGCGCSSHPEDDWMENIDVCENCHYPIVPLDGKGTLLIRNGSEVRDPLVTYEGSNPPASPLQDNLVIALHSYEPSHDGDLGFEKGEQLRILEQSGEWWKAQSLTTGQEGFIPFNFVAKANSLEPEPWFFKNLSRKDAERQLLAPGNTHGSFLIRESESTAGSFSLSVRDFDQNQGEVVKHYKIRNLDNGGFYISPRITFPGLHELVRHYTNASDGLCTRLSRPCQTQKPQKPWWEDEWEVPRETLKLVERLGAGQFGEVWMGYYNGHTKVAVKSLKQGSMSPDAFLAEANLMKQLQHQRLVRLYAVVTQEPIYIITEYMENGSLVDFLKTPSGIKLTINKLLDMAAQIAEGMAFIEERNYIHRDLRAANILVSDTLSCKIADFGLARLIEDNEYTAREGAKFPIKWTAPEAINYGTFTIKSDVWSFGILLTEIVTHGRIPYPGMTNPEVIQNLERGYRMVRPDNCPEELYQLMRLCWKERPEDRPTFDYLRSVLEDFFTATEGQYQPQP
How it was run: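 Readout pairs a europium cryptate-labelled anti-phosphotyrosine antibody with XL665-streptavidin, measured by time-resolved fluorescence. IC50 derived from percent inhibition against untreated controls.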

T1 sequence (P07947 whole entry): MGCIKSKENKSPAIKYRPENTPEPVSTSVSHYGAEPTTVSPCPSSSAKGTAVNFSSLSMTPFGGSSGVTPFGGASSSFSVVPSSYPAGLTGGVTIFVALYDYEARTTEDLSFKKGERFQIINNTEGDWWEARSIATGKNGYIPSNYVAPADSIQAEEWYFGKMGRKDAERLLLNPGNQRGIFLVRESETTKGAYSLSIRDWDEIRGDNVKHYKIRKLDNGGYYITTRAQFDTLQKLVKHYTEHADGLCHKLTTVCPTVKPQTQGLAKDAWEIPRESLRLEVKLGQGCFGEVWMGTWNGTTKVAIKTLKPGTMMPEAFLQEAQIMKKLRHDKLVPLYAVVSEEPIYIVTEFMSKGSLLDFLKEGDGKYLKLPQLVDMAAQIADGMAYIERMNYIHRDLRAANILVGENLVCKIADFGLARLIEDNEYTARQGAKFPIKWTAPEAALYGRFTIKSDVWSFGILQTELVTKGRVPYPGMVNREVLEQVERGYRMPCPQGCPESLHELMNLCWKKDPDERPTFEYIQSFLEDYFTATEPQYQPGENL

IC50 (human Yes1 enzyme) [nM] | IC50 (human Src enzyme) [nM] | IC50 (human Lck enzyme) [nM] | SMILES
2.7 | 53 | 7.4 | Cc1cc2cc(C(=O)c3cnn(-c4cnc(Oc5c(F)cccc5F)cc4C)c3N)[nH]c2cc1N1C(=O)NC2(CCC2)C1=O [Example 5-1-341, 7-[2-[5-amino-1-[6-(2,6-difluorophenoxy)-4-methylpyridin-3-yl]pyrazole-4-carbonyl]-5-methyl-1H-indol-6-yl]-5,7-diazaspiro[3.4]octane-6,8-dione]
1.7 | 48 | 5.3 | Cc1cc2cc(C(=O)c3cnn(-c4cnc(Oc5c(F)cccc5F)cc4C)c3N)[nH]c2cc1N1C(=O)NC2(CCOCC2)C1=O [Example 5-1-342, 3-[2-[5-amino-1-[6-(2,6-difluorophenoxy)-4-methylpyridin-3-yl]pyrazole-4-carbonyl]-5-methyl-1H-indol-6-yl]-8-oxa-1,3-diazaspiro[4.5] decane-2,4-dione]
3 | 100 | 7.2 | Cc1cc(Oc2c(F)cccc2F)ncc1-n1ncc(C(=O)c2cc3cc(F)c(N4C(=O)NC5(CC5)C4=O)cc3[nH]2)c1N [Example 5-1-343, 6-[2-[5-amino-1-[6-(2,6-difluorophenoxy)-4-methylpyridin-3-yl]pyrazole-4-carbonyl]-5-fluoro-1H-indol-6-yl]-4,6-diazaspiro[2.4] heptane-5,7-dione]
4.7 | 150 | 13 | Cc1cc(Oc2c(F)cccc2F)ncc1-n1ncc(C(=O)c2cc3cc(F)c(N4C(=O)NC5(CCCC5)C4=O)cc3[nH]2)c1N [Example 5-1-344, 3-[2-[5-amino-1-[6-(2,6-difluorophenoxy)-4-methylpyridin-3-yl]pyrazole-4-carbonyl]-5-fluoro-1H-indol-6-yl]-1,3-diazaspiro[4.4]nonane-2,4-dione]
1.6 | 47 | 3.2 | Cc1cc(Oc2c(F)cccc2F)ncc1-n1ncc(C(=O)c2cc3cc(F)c(N4C(=O)NC5(COC5)C4=O)cc3[nH]2)c1N [Example 5-1-345, 7-[2-[5-amino-1-[6-(2,6-difluorophenoxy)-4-methylpyridin-3-yl]pyrazole-4-carbonyl]-5-fluoro-1H-indol-6-yl]-2-oxa-5,7-diazaspiro[3.4] octane-6,8-dione]
8.8 | 510 | 120 | Cc1cc(Oc2c(F)cccc2F)ncc1-n1ncc(C(=O)c2cc3cc(SC(F)F)c(NS(=O)(=O)C4CCOCC4)cc3[nH]2)c1N [Example 5-1-346, N-[2-[5-amino-1-[6-(2,6-difluorophenoxy)-4-methylpyridin-3-yl]pyrazole-4-carbonyl]-5-(difluoromethylsulfanyl)-1H-indol-6-yl]oxane-4-sulfonamide]
0.87 | 46 | 11 | Cc1cc2cc(C(=O)c3cnn(-c4ccc(Oc5ccccc5F)cc4C)c3N)[nH]c2cc1NS(=O)(=O)C1CCOCC1 [Example 5-1-347, N-[2-[5-amino-1-[4-(2-fluorophenoxy)-2-methylphenyl]pyrazole-4-carbonyl]-5-methyl-1H-indol-6-yl]oxane-4-sulfonamide]
0.8 | 13 | 2 | Cc1cc(Oc2c(F)cccc2F)ncc1-n1ncc(C(=O)c2cc3cc(OCC(F)F)c(N4C(=O)N[C@]5(CCNC5)C4=O)cc3[nH]2)c1N [Example 5-1-348, (5S)-3-[2-[5-amino-1-[6-(2,6-difluorophenoxy)-4-methylpyridin-3-yl]pyrazole-4-carbonyl]-5-(2,2-difluoroethoxy)-1H-indol-6-yl]-1,3,7-triazaspiro[4.4]nonane-2,4-dione]
0.51 | 6.9 | 2.5 | Cc1cc(Oc2ccccc2F)ccc1-n1ncc(C(=O)c2cc3cc(OCC(F)F)c(N4C(=O)NC5(CCNC5)C4=O)cc3[nH]2)c1N (stereo not drawn) [Example 5-1-349, 3-[2-[5-amino-1-[4-(2-fluorophenoxy)-2-methylphenyl]pyrazole-4-carbonyl]-5-(2,2-difluoroethoxy)-1H-indol-6-yl]-1,3,7-triazaspiro [4.4]nonane-2,4-dione]
0.88 | 13 | 3.3 | Cc1cc(Oc2c(F)cccc2F)ncc1-n1ncc(C(=O)c2cc3cc(OCC(F)F)c(N4C(=O)NC5(CCN(C6COC6)CC5)C4=O)cc3[nH]2)c1N [Example 5-1-350, 3-[2-[5-amino-1-[6-(2,6-difluorophenoxy)-4-methylpyridin-3-yl]pyrazole-4-carbonyl]-5-(2,2-difluoroethoxy)-1H-indol-6-yl]-8-(oxetan-3-yl)-1,3,8-triazaspiro[4.5]decane-2,4-dione]
0.65 | 6 | 2.4 | Cc1cc(Oc2c(F)cccc2F)ncc1-n1ncc(C(=O)c2cc3cc(OCC(F)F)c(N4C(=O)NC5(CCN(Cc6ccccc6)CC5)C4=O)cc3[nH]2)c1N [Example 5-1-351, 3-[2-[5-amino-1-[6-(2,6-difluorophenoxy)-4-methylpyridin-3-yl]pyrazole-4-carbonyl]-5-(2,2-difluoroethoxy)-1H-indol-6-yl]-8-benzyl-1,3,8-triazaspiro[4.5]decane-2,4-dione]
11 | 160 | 17 | Cc1cc(Oc2c(F)cccc2F)ncc1-n1ncc(C(=O)c2cc3cc(OCC(F)F)c(N4C(=O)NC5(CCN(C6COC6)C5)C4=O)cc3[nH]2)c1N (stereo not drawn) [Example 5-1-352, 3-[2-[5-amino-1-[6-(2,6-difluorophenoxy)-4-methylpyridin-3-yl]pyrazole-4-carbonyl]-5-(2,2-difluoroethoxy)-1H-indol-6-yl]-7-(oxetan-3-yl)-1,3,7-triazaspiro[4.4]nonane-2,4-dione]
5.5 | 73 | 14 | Cc1cc(Oc2ccccc2F)ccc1-n1ncc(C(=O)c2cc3cc(OCC(F)F)c(N4C(=O)NC5(CCN(C6COC6)C5)C4=O)cc3[nH]2)c1N (stereo not drawn) [Example 5-1-353, 3-(2-(5-amino-1-(4-(2-fluorophenoxy)-2-methylphenyl)-1H-pyrazole-4-carbonyl)-5-(2,2-difluoroethoxy)-1H-indol-6-yl)-7-(oxetan-3-yl)-1,3,7-triazaspiro[4.4]nonane-2,4-dione]
1.4 | 13 | 2.9 | Cc1cc(Oc2c(F)cccc2F)ncc1-n1ncc(C(=O)c2cc3cc(OCC(F)F)c(N4C(=O)NC5(CCN(Cc6ccccc6)C5)C4=O)cc3[nH]2)c1N (stereo not drawn) [Example 5-1-354, 3-[2-[5-amino-1-[6-(2,6-difluorophenoxy)-4-methylpyridin-3-yl]pyrazole-4-carbonyl]-5-(2,2-difluoroethoxy)-1H-indol-6-yl]-7-benzyl-1,3,7-triazaspiro[4.4]nonane-2,4-dione]
8 | 97 | 13 | Cc1cc(Oc2ccccc2F)ccc1-n1ncc(C(=O)c2cc3cc(OCC(F)F)c(N4C(=O)NC5(CCN(Cc6ccccc6)C5)C4=O)cc3[nH]2)c1N (stereo not drawn) [Example 5-1-355, 3-[2-[5-amino-1-[4-(2-fluorophenoxy)-2-methylphenyl]pyrazole-4-carbonyl]-5-(2,2-difluoroethoxy)-1H-indol-6-yl]-7-benzyl-1,3,7-triazaspiro[4.4]nonane-2,4-dione]
0.87 | 17 | 4.4 | Cc1cc2cc(C(=O)c3cnn(-c4ccc(Oc5ccccc5F)cc4C)c3N)[nH]c2cc1N1C(=O)NC(C)(C)C1=O [Example 5-1-356, 3-[2-[5-amino-1-[4-(2-fluorophenoxy)-2-methylphenyl]pyrazole-4-carbonyl]-5-methyl-1H-indol-6-yl]-5,5-dimethylimidazolidine-2,4-dione]
2.3 | 39 | 4.4 | Cc1cc2cc(C(=O)c3cnn(-c4cnc(Oc5c(F)cccc5F)cc4C)c3N)[nH]c2cc1N1C(=O)NC2(CCNCC2)C1=O [Example 5-1-357, 3-[2-[5-amino-1-[6-(2,6-difluorophenoxy)-4-methylpyridin-3-yl]pyrazole-4-carbonyl]-5-methyl-1H-indol-6-yl]-1,3,8-triazaspiro[4.5] decane-2,4-dione]
1.8 | 21 | 4.2 | Cc1cc2cc(C(=O)c3cnn(-c4cnc(Oc5c(F)cccc5F)cc4C)c3N)[nH]c2cc1N1C(=O)NC2(CCNC2)C1=O (stereo not drawn) [Example 5-1-358, 3-[2-[5-amino-1-[6-(2,6-difluorophenoxy)-4-methylpyridin-3-yl]pyrazole-4-carbonyl]-5-methyl-1H-indol-6-yl]-1,3,7-triazaspiro[4.4] nonane-2,4-dione]
6 | 130 | 25 | Cc1cc(Oc2ccccc2F)ncc1-n1ncc(C(=O)c2cc3cc(SC(F)F)c(N4C(=O)NC(C)(C)C4=O)cc3[nH]2)c1N [Example 5-1-359, 3-[2-[5-amino-1-[6-(2-fluorophenoxy)-4-methylpyridin-3-yl]pyrazole-4-carbonyl]-5-(difluoromethylsulfanyl)-1H-indol-6-yl]-5,5-dimethylimidazolidine-2,4-dione]
2.2 | 19 | 6.3 | Cc1cc2cc(C(=O)c3cnn(-c4cnc(Oc5c(F)cccc5F)cc4C)c3N)[nH]c2cc1N1C(=O)NC2(CCN(C3COC3)CC2)C1=O [Example 5-1-360, 3-[2-[5-amino-1-[6-(2,6-difluorophenoxy)-4-methylpyridin-3-yl]pyrazole-4-carbonyl]-5-methyl-1H-indol-6-yl]-8-(oxetan-3-yl)-1,3,8-triazaspiro[4.5]decane-2,4-dione]
